# In patent US11192891B2, “Diazaspiro ROCK inhibitors” (BRISTOL-MYERS SQUIBB COMPANY, priority 2017, dated 2021):
# Target: ROCK2 (Homo sapiens, UniProt O75116)
# Assay: ROCK kinase inhibition assay, FITC peptide substrate, LABCHIP 3000 readout
# Type: biochemical
# Details: 5 μM ATP, 1.5 μM peptide substrate
# Procedure: Compounds were dissolved in DMSO so that the final concentration of DMSO was <2%, and the reaction was initiated with Rho kinase variants. After incubation, the reaction was terminated by the addition of EDTA and the phosphorylated and non-phosphorylated peptides separated using a LABCHIP® 3000 Reader (Caliper Life Sciences). […] Compounds were tested in dose-response format, and the inhibition of kinase activity was calculated at each concentration of compound.
# Chain of ROCK2 (O75116 whole entry, species assumed): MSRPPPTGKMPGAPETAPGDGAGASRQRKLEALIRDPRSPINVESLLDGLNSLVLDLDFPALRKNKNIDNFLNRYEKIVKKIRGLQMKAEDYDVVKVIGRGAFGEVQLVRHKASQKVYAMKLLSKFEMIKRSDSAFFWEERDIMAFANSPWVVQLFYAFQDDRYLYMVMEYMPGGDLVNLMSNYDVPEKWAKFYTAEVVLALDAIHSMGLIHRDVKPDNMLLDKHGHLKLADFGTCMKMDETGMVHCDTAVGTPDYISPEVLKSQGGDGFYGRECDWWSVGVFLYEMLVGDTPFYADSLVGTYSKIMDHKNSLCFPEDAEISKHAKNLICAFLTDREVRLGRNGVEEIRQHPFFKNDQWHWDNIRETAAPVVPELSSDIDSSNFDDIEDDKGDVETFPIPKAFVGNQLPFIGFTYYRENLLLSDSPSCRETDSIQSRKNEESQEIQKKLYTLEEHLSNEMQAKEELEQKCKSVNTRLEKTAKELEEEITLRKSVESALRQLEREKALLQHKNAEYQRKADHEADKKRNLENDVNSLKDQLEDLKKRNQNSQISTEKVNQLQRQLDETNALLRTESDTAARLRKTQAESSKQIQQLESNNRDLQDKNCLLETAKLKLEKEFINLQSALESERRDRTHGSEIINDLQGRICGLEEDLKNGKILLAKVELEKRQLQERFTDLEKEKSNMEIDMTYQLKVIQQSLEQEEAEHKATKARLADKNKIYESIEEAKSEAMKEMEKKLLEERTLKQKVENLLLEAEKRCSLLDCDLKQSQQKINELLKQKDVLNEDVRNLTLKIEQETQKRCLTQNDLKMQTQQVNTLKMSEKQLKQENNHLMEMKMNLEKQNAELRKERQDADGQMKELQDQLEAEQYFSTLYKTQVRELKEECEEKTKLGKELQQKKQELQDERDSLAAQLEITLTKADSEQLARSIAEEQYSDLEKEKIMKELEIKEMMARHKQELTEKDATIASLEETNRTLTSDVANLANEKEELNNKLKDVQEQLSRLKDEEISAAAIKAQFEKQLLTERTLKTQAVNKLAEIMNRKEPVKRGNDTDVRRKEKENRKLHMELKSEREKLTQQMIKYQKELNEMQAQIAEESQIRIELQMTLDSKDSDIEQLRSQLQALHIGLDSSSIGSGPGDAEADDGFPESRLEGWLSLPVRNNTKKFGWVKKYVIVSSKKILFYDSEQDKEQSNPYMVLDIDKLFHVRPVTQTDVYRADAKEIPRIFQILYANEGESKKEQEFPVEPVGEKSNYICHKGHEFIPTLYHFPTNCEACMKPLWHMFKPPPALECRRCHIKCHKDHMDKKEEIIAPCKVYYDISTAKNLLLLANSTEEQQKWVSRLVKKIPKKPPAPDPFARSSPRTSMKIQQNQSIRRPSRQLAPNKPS
row,SMILES,IC50 [nM]
1,"COc1cc(N2CCC3(CCN(C(=O)c4ccc(S(N)(=O)=O)cc4)CC3)C2=O)ccc1-c1cn[nH]c1 [Example 55, 4-{2-[3-methoxy-4-(1H-pyrazol-4-yl)phenyl]-1-oxo-2,8-diazaspiro[4.5]decane-8-carbonyl}benzene-1-sulfonamide]",96
2,"COc1cc(N2CCC3(CCN(C(=O)C4Cc5ccccc5O4)CC3)C2=O)ccc1-c1cn[nH]c1 (stereo not shown) [Example 102, 8-(2,3-dihydro-1-benzofuran-2-carbonyl)-2-[3-methoxy-4-(1H-pyrazol-4-yl)phenyl]-2,8-diazaspiro[4.5]decan-1-one]",1970
3,"COc1ccc(S(=O)(=O)N2CCC3(CCN(c4ccc(-c5cn[nH]c5)c(OC)c4)C3=O)CC2)cc1F [Example 212, 8-(3-fluoro-4-methoxybenzenesulfonyl)-2-[3-methoxy-4-(1H-pyrazol-4-yl)phenyl]-2,8-diazaspiro[4.5]decan-1-one]",285
4,"COc1cc(N2CCC3(CCN(C(=O)c4ccc(C(F)(F)F)nc4)CC3)C2=O)ccc1-c1cn[nH]c1 [Example 87, 2-[3-methoxy-4-(1H-pyrazol-4-yl)phenyl]-8-[6-(trifluoromethyl)pyridine-3-carbonyl]-2,8-diazaspiro[4.5]decan-1-one]",557
5,"COc1cc(N2CCC3(CCN(C(=O)c4cccc5cccnc45)CC3)C2=O)ccc1-c1cn[nH]c1 [Example 149, 2-[3-methoxy-4-(1H-pyrazol-4-yl)phenyl]-8-(quinoline-8-carbonyl)-2,8-diazaspiro[4.5]decan-1-one]",251
6,"COc1ccc(S(=O)(=O)N2CCC3(CCN(c4ccc(-c5cn[nH]c5)c(OC)c4)C3=O)CC2)cc1 [Example 206, 2-[3-methoxy-4-(1H-pyrazol-4-yl)phenyl]-8-(4-methoxybenzenesulfonyl)-2,8-diazaspiro[4.5]decan-1-one]",497
7,"COc1ccc2c(OC)ccc(C(=O)N3CCC4(CC3)CCN(c3ccc(-c5cn[nH]c5)c(OC)c3)C4=O)c2c1 [Example 199, 8-(4,7-dimethoxynaphthalene-1-carbonyl)-2-[3-methoxy-4-(1H-pyrazol-4-yl)phenyl]-2,8-diazaspiro[4.5]decan-1-one]",186
8,"COc1cc(CN2CCC(C(=O)N3CCC4(CC3)CCN(c3ccc(-c5cn[nH]c5)c(OC)c3)C4=O)CC2)ccc1F [Example 151, 8-{1-[(4-fluoro-3-methoxyphenyl)methyl]piperidine-4-carbonyl}-2-[3-methoxy-4-(1H-pyrazol-4-yl)phenyl]-2,8-diazaspiro[4.5]decan-1-one]",2470
9,"COc1cc(N2CCC3(CCN(C(=O)C4CCN(C)CC4)CC3)C2=O)ccc1-c1cn[nH]c1 [Example 172, 2-[3-methoxy-4-(1H-pyrazol-4-yl)phenyl]-8-(1-methylpiperidine-4-carbonyl)-2,8-diazaspiro[4.5]decan-1-one]",2070
10,"COc1ncc(C(=O)N2CCC3(CC2)CCN(c2ccc(-c4cn[nH]c4)c(OC)c2)C3=O)cn1 [Example 99, 2-[3-methoxy-4-(1H-pyrazol-4-yl)phenyl]-8-(2-methoxypyrimidine-5-carbonyl)-2,8-diazaspiro[4.5]decan-1-one]",464
11,"COc1cc(N2CCC3(CCN(S(=O)(=O)c4ccc(S(N)(=O)=O)cc4)CC3)C2=O)ccc1-c1cn[nH]c1 [Example 213, 4-({2-[3-methoxy-4-(1H-pyrazol-4-yl)phenyl]-1-oxo-2,8-diazaspiro[4.5]decan-8-yl}sulfonyl)benzene-1-sulfonamide]",456
12,"COc1ccc(C(=O)N2CCC3(CC2)CC(=O)N(c2ccc(-c4cn[nH]c4)c(OC)c2)C3)cc1 [Example 47, 2-[3-methoxy-4-(1H-pyrazol-4-yl)phenyl]-8-(4-methoxybenzoyl)-2,8-diazaspiro[4.5]decan-3-one]",306
13,"COc1cc(N2CCC3(CCN(C(=O)C4CCC(C(N)=O)CC4)CC3)C2=O)ccc1-c1cn[nH]c1 (stereo not shown) [Example 148, 4-{2-[3-methoxy-4-(H-pyrazol-4-yl)phenyl]-1-oxo-2,8-diazaspiro[4.5]decane-8-carbonyl}cyclohexane-1-carboxamide]",2170

# Further lines, results first:
row,IC50 [nM],SMILES
1,12,"COc1cc(N2CCC3(CCN(C(=O)c4ccc(N5CC(=O)NC5=O)cc4)CC3)C2=O)ccc1-c1cn[nH]c1 [Example 147, 1-(4-{2-[3-methoxy-4-(1H-pyrazol-4-yl)phenyl]-1-oxo-2,8-diazaspiro[4.5]decane-8-carbonyl}phenyl)imidazolidine-2,4-dione]"
2,5.5,"COc1cc(N2CCC3(CCN(C(=O)c4ccc(-c5ccncc5)cc4)CC3)C2=O)ccc1-c1cn[nH]c1 [Example 171, 2-[3-methoxy-4-(1H-pyrazol-4-yl)phenyl]-8-[4-(pyridin-4-yl)benzoyl]-2,8-diazaspiro[4.5]decan-1-one]"
3,1.1,"COc1cc(N2CCC3(CCN(C(=O)c4ccc(N5CCN(Cc6ccccc6Cl)CC5)cc4)CC3)C2=O)ccc1-c1cn[nH]c1 [Example 223, 8-(4-{4-[(2-chlorophenyl)methyl]piperazin-1-yl}benzoyl)-2-[3-methoxy-4-(1H-pyrazol-4-yl)phenyl]-2,8-diazaspiro[4.5]decan-1-one]"
4,67,"COc1cc(N2CCC3(CCN(C(=O)c4cc(C(F)(F)F)n(C)n4)CC3)C2=O)ccc1-c1cn[nH]c1 [Example 107, 2-[3-methoxy-4-(1H-pyrazol-4-yl)phenyl]-8-[1-methyl-S-(trifluoromethyl)-1H-pyrazole-3-carbonyl]-2,8-diazaspiro[4.5]decan-1-one]"
5,0.7,"COc1cc(N2CCC3(CCN(C(=O)c4ccc(N5CCN(C(C)CO)CC5)cc4)CC3)C2=O)ccc1-c1cn[nH]c1 (stereo not shown) [Example 242, 8-{4-[4-(1-hydroxypropan-2-yl)piperazin-1-yl]benzoyl}-2-[3-methoxy-4-(1H-pyrazol-4-yl)phenyl]-2,8-diazaspiro[4.5]decan-1-one]"
6,0.7,"CN1CCN(c2ccc(C(=O)N3CCC4(CC3)CCN(c3ccc(-c5cn[nH]c5)cc3)C4=O)cc2)CC1 [Example 31, 8-[4-(4-methylpiperazin-1-yl)benzoyl]-2-[4-(1H-pyrazol-4-yl)phenyl]-2,8-diazaspiro[4.5]decan-1-one]"
7,78,"COc1cc(N2CCC3(CCN(C(=O)c4cnc5ccccc5c4)CC3)C2=O)ccc1-c1cn[nH]c1 [Example 74, 2-[3-methoxy-4-(1H-pyrazol-4-yl)phenyl]-8-(quinoline-3-carbonyl)-2,8-diazaspiro[4.5]decan-1-one]"
8,72,"COc1cc(N2CCC3(CCN(C(=O)c4cc(C)on4)CC3)C2=O)ccc1-c1cn[nH]c1 [Example 104, 2-[3-methoxy-4-(1H-pyrazol-4-yl)phenyl]-8-(5-methyl-1,2-oxazole-3-carbonyl)-2,8-diazaspiro[4.5]decan-1-one]"
9,75,"COc1cc(N2CCC3(CCN(C(=O)c4ccc(-c5noc(C(C)C)n5)cc4)CC3)C2=O)ccc1-c1cn[nH]c1 [Example 134, 2-[3-methoxy-4-(1H-pyrazol-4-yl)phenyl]-8-{4-[5-(propan-2-yl)-1,2,4-oxadiazol-3-yl]benzoyl}-2,8-diazaspiro[4.5]decan-1-one]"
10,27,"COc1cc(N2CCC3(CCN(C(=O)c4cc(C)[nH]n4)CC3)C2=O)ccc1-c1cn[nH]c1 [Example 187, 2-[3-methoxy-4-(1H-pyrazol-4-yl)phenyl]-8-(5-methyl-1H-pyrazole-3-carbonyl)-2,8-diazaspiro[4.5]decan-1-one]"
11,16.5,"COc1cc(N2CCC3(CCN(C(=O)c4ccc(-c5cc[nH]n5)cc4)CC3)C2=O)ccc1-c1cn[nH]c1 [Example 53, 2-[3-methoxy-4-(1H-pyrazol-4-yl)phenyl]-8-[4-(1H-pyrazol-3-yl)benzoyl]-2,8-diazaspiro[4.5]decan-1-one]"
12,94,"COc1cc(N2CCC3(CCN(C(=O)c4ccc5c(c4)CNC5=O)CC3)C2=O)ccc1-c1cn[nH]c1 [Example 144, 2-[3-methoxy-4-(1H-pyrazol-4-yl)phenyl]-8-(1-oxo-2,3-dihydro-1H-isoindole-5-carbonyl)-2,8-diazaspiro[4.5]decan-1-one]"
13,23,"COc1cc(N2CCC3(CCN(C(=O)c4ccc(-c5cnco5)cc4)CC3)C2=O)ccc1-c1cn[nH]c1 [Example 160, 2-[3-methoxy-4-(1H-pyrazol-4-yl)phenyl]-8-[4-(1,3-oxazol-5-yl)benzoyl]-2,8-diazaspiro[4.5]decan-1-one]"
14,13,"COc1cc(N2CCC3(CCN(C(=O)c4ccc(CS(C)(=O)=O)cc4)CC3)C2=O)ccc1-c1cn[nH]c1 [Example 169, 8-[4-(methanesulfonylmethyl)benzoyl]-2-[3-methoxy-4-(1H-pyrazol-4-yl)phenyl]-2,8-diazaspiro[4.5]decan-1-one]"
15,0.5,"CN1CCN(c2ccc(C(=O)N3CCC4(CC3)CCN(c3ccc(-c5ccc6[nH]ncc6c5)cc3)C4=O)cc2)CC1 [Example 37, 2-[4-(1H-indazol-5-yl)phenyl]-8-[4-(4-methylpiperazin-1-yl)benzoyl]-2,8-diazaspiro[4.5]decan-1-one]"
16,8.9,"COc1cc(N2CCC3(CCN(C(=O)c4ccc(N5CCN(C(=O)OC(C)(C)C)CC5)cc4)CC3)C2=O)ccc1-c1cn[nH]c1 [Example 205, tert-butyl 4-(4-{2-[3-methoxy-4-(1H-pyrazol-4-yl)phenyl]-1-oxo-2,8-diazaspiro[4.5]decane-8-carbonyl}phenyl)piperazine-1-carboxylate]"
17,29,"COc1ccc(C(=O)N2CCC3(CC2)CCN(c2ccc(-c4cn[nH]c4)c(OC)c2)C3=O)c(OC)c1 [Example 174, 8-(2,4-dimethoxybenzoyl)-2-[3-methoxy-4-(1H-pyrazol-4-yl)phenyl]-2,8-diazaspiro[4.5]decan-1-one]"
18,0.9,"COc1cc(N2CCC3(CCN(C(=O)c4ccc(N5CCN(C6CCN(C)CC6)CC5)cc4)CC3)C2=O)ccc1-c1cn[nH]c1 [Example 244, 2-[3-methoxy-4-(1H-pyrazol-4-yl)phenyl]-8-{4-[4-(1-methylpiperidin-4-yl)piperazin-1-yl]benzoyl}-2,8-diazaspiro[4.5]decan-1-one]"
